Patent US9714247B2, “Multiple kinase pathway inhibitors” (Mannkind Corporation, priority 2012, dated 2017)
Read-outs that look alike come from different tables or passages of the source.

Legend:
[1] = system: phosphorylation of SFKs in Ramos cells; assay: SFK phosphorylation (Tyr 416) by Western blotting; type: cell-based, human; settings: pretreated 2 hours
Method: Ramos cell lysates from stimulated and unstimulated cells were analyzed for the levels of phosphorylated SRC family members. As described in Example 82 (above), cells were pretreated for 2 hours with an amino naphthyridinones and then stimulated with anti-IgM antibody and H2O2, protein lysates were prepared, quantified and used for Western blotting. A commercially available antibody that detects Src phosphorylated at Tyr 416 (Cell Signalling) and may cross-react with other Src family members such as Lyn, Fyn, Lck, Yes and Hck when phosphorylated at equivalent sites was used for Western blot analysis. The molecular weights of SFK family members are quite similar (in the 55-60 kDa range) and different family members cannot be resolved by the conditions used for the Western blot. […] The procedure can be similarly adapted for flow cytometric analysis as with the PLC-γ2 assay in Example 82. Ramos cells were incubated with Compound 1 for 2 hrs in RPMI media with 5% FBS prior to stimulation stimulated with H2O2/anti-IgM/F(Ab) for 10 minutes. Cells were evaluated by FACS analysis using anti-pSRC antibody and FITC-conjugated goat anti-rabbit secondary antibody following overnight storage at 4° C. in BD perm/wash buffer.

[2] = system: PARP cleavage in DoHH-2 cells; assay: PARP cleavage by Western blotting; type: cell-based, human; settings: DoHH-2 cells, 2, 6 and 24 hr, low micromolar concentrations
Method: Additionally, using an exemplary amino naphthyridinones, Compound 1, […] PARP cleavage has been observed. PARP is downstream of the caspase cascade; its cleavage is an indicator or caspase-dependent apoptosis. PARP cleavage was assessed by Western blotting exponentially growing cultures of DoHH-2 cells that had been cultured overnight (18 h) in 1% FBS containing RPMI1640 media. These cells were washed, counted and plated with and without Compound 1 for 2, 6, and 24 hr. Cells were centrifuged and cell pellets were lysed using RIPA buffer from CST. Protein lysates were quantified using the BCA protein assay kit from Pierce and used in a standard Western blotting procedure. Anti-PARP antibody was obtained from CST and used as per the manufacturer's protocol. […] Thus amino naphthyridinones can be used to induce apoptosis in tumor cells.

[3] = system: PLCγ2 phosphorylation in Ramos cells; assay: PLCγ2 phosphorylation by Western blotting; type: cell-based, human; settings: anti-IgM/H2O2 stimulation, Tyr1217
Method: Ramos cells were cultured in RPMI 1640 media with 10% FBS and were starved overnight (18 h) in 1% FBS containing media and on the next day pretreated with inhibitor for 2 h before stimulation. Cells were stimulated to induce BTK network dependent signal transduction pathways using mouse anti-human IgM (final concentration 10 ug/ml; Invitrogen) antibodies and 3.3 mM H2O2 mixture for 2 minutes followed by F(Ab) fragment that cross-linked the anti-IgM antibody (final concentration 10 ug/ml), and 3.3 mM H2O2 for 8 minutes. Cell lysates were prepared in lysis buffer containing protease and phosphatase inhibitors, quantified using the BCA protein assay kit (Pierce) and used for Western blotting. Antibodies specifically targeted to the molecules of interest, PLCγ2 phosphorylated at Tyr1217 and total PLCγ2, (Cell Signaling Technology) were used in a standard Western blotting procedure.
Phosphorylation of PLCγ2 at Tyr1217 along with Tyr753, Tyr759 and Tyr1197 is correlated with increased PLCγ2 activity. The readout for BTK network signaling was inhibition of phosphorylation of PLCγ2 induced by the anti-IgM treatment.

[4] = system: phosphorylation of SFKs in Ramos cells; assay: SFK phosphorylation (Tyr 416) by flow cytometry; type: cell-based, human
In short: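 Ramos cells pretreated with compound 2 hrs in RPMI with 5% FBS, then stimulated 10 minutes with H2O2/anti-IgM. Phospho-Tyr 416 SFK detected by flow cytometry with an antibody that may cross-react across Src family members, plus fluorescent secondary antibody.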

DoHH2 cells = settings: treated 24 hours
[5] = system: PLCγ2 phosphorylation in Ramos cells; assay: PLCγ2 phosphorylation by flow cytometry; type: cell-based, human
In short: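 Ramos cells starved 18 h in 1% FBS, pretreated with inhibitor 2 h, then stimulated with anti-IgM (10 ug/ml final) plus 3.3 mM H2O2 for 2 min, then cross-linking F(ab) (10 ug/ml) plus H2O2 for 8 min. Fixed, permeabilized cells stained with PE anti-phospho-PLCγ2 (Tyr1217 or Tyr759), dead cells gated out; ED50 from geometric mean fluorescence over four inhibitor concentrations.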

Src [6] = target: T1, Src (Homo sapiens (Human), UniProt P12931); assay: biochemical
DoHH-2 tumor xenograft = type: in vivo
PC3 = assay: Apoptosis by flow cytometry (Annexin V / 7AAD); type: cell-based; settings: Table 5, 6 hours
Ramos = assay: Apoptosis by flow cytometry (Annexin V / 7AAD); type: cell-based, human; settings: Table 5, 6 hours
Src [7] = target: T1, Src; settings: read-out: Src IC50

T1 sequence (P12931 whole entry, looked up): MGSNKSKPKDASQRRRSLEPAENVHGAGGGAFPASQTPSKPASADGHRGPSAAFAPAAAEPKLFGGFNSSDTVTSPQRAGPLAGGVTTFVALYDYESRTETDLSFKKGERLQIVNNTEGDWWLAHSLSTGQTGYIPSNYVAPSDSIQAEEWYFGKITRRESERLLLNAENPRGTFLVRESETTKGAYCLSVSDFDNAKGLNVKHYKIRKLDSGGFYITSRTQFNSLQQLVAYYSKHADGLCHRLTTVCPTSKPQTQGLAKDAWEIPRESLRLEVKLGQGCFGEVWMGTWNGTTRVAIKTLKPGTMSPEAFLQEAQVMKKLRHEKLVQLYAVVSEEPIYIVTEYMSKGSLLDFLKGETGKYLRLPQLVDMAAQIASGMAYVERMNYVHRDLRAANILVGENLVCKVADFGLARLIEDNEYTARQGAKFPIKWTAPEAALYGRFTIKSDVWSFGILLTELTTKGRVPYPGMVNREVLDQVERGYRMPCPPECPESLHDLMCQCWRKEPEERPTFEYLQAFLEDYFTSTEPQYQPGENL

Structure (SMILES): CCN(CC)CCOc1ccc(Nc2cc3c(cn2)cc(-c2ccccc2)c(=O)n3CC)nc1 [Compound 1, 7-[5-(2-Diethylamino-ethoxy)-pyridin-2-ylamino]-1-ethyl-3-phenyl-1H-[1, 6]naphthyridin-2-one]
- Inhibition of phosphorylation of SFKs (Western blot) [1]: dose-dependent decrease of phosphorylation of SFKs
- PARP cleavage [2]: induced the apoptotic pathway as shown by PARP cleavage
- Inhibition of PLCγ2 phosphorylation (Western blot) [3]: dose dependent decrease in PLCγ2 phosphorylation
- inhibition at 0.3 µM ([4]; Homo sapiens, 0.3 uM, flow cytometry, SFK phosphorylated at Tyr 416, read-out: pSRC % inhibition): 31%
- Inhibition of SFK phosphorylation (flow cytometry) ([4]; incubated 2 hrs): dose-dependent inhibition of SFK phosphorylation
- Effect on Cell Cycle (DoHH2 cells): G1 Arrest
- inhibition at 0.3 µM ([5]; Homo sapiens, 0.3 uM, flow cytometry, anti-phospho PLCγ2 (Tyr759), read-out: pPLCγ % inhibition): 63%
- EC50 ([5]; Homo sapiens, flow cytometry, anti-phospho PLCγ2 (Tyr1217), four concentrations, read-out: Inhibition of phosphorylation of PLC-γ2 EC50): 380 nM
- Inhibition of PLC-γ2 phosphorylation (flow cytometry) ([5]; increasing concentrations): dose dependent decrease in PLC-γ2 phosphorylation
- IC50 (Src [6]): 100 to 1000 nM
- Effect on tumor growth compared with 70 mg/kg PCI-32765 (DoHH-2 tumor xenograft; 62.5 mg/kg): more marked effect
- Mortality (DoHH-2 tumor xenograft; 62.5 mg/kg group, day 17): 2 animals
- Estimated maximal tolerated dose (DoHH-2 tumor xenograft; IP, SCID mice): ~62.5 mg/kg/day
- Tumor growth inhibition (DoHH-2 tumor xenograft; highest dose 62.5 mg/kg/day IP, day 15, 19 and 21): significantly inhibited tumor growth
- Percent Apoptosis PC3 (PC3; 1 uM): 7.86%
- Percent Apoptosis PC3 (PC3; 2 uM): 6.5%
- Percent Apoptosis PC3 (PC3; 5 uM): 11.74%
- Percent Apoptosis PC3 (PC3; 10 uM): 6.35%
- Percent Apoptosis Ramos (Ramos; 1 uM): 35.71%
- Percent Apoptosis Ramos (Ramos; 2 uM): 38.94%
- Percent Apoptosis Ramos (Ramos; 5 uM): 39.09%
- Percent Apoptosis Ramos (Ramos; 10 uM): 51.63%

Structure (SMILES): CCn1c(=O)c(-c2ccccc2)cc2cnc(Nc3ncc(CCN(C)C)s3)cc21 [Compound 2, 7-[5-(2-Dimethylamino-ethyl)-thiazol-2-ylamino]-1-ethyl-3-phenyl-1H-[1,6]naphthyridin-2-one]
- IC50 (Src [7]): > 5000 nM
